For orientation: Km means the concentration of substrate that gives half-maximal velocity.

Here are results for 2 compounds from article PMC6584016, “A new lipoxygenase from the agaric fungus Agrocybe aegerita: Biochemical characterization and kinetic properties” (PLoS ONE, 2019).

For this test, the target named is T1, AaeLOX4 (Cyclocybe aegerita, UniProt A0A4D6T4S4).
T1 construct: gene lox4; codon-optimized gene in pET28a, E. coli BL21(DE3) Gold; HisTrap and gel filtration, tag cleavage not mentioned; predicted 79 kDa
T1 sequence (A0A4D6T4S4 1-710): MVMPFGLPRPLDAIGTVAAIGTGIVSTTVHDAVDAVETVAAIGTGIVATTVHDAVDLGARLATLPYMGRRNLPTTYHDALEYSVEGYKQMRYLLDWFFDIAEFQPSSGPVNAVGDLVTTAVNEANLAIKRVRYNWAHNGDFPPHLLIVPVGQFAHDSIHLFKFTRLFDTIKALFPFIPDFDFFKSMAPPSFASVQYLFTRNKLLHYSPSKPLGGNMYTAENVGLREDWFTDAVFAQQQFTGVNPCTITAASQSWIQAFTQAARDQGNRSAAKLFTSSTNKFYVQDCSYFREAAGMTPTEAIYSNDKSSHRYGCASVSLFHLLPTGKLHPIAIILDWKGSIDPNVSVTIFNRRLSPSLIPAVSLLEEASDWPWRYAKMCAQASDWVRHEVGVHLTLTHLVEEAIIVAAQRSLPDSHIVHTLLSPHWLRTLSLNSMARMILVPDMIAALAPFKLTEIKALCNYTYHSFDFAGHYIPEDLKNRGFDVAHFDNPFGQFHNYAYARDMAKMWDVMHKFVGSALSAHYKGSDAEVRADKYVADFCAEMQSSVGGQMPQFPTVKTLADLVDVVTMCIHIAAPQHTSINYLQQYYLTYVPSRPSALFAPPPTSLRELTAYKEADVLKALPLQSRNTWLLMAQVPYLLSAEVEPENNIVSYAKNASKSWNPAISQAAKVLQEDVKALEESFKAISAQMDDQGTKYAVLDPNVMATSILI
Put plainly: conjugated diene formation at […] nm; Lineweaver-Burk. It counts as biochemical. Conditions: 50 mM phosphate pH 7.5, 25 °C; substrate dispersed with Tween 20; 0.025-2 mM.

In the case of `CCCCC/C=C\C/C=C\CCCCCCCC(=O)O` [linoleic acid], the Km came out at 295 µM.

Take `CC/C=C\C/C=C\C/C=C\CCCCCCCC(=O)O` [linolenic acid]: the Km is 634 µM.
